Data: patent US8203033B2, “Methods and compositions for providing tolerance to multiple herbicides” (Pioneer Hi-Bred International, Inc., priority 2005, dated 2012)

Tests used:
[1] = system: Heterozygous GAT-HRA corn; assay: Postemergence test of herbicides on corn (fresh weight, visual injury); format: in vivo; settings: 3472 g ae/ha
[2] = system: non-glyphosate resistant ryegrass (70-04); assay: Glyphosate, metsulfuron-methyl and two additives on the control of ryegrass; format: in vivo
Protocol: The example was conducted on non-glyphosate resistant ryegrass. As provided in Table 23, all treatments that included glyphosate [180 g a.i. L ha^−1 (0.5 L glyphosate (SCAT®))] plus metsulfuron-methyl (BRUSH-OFF®) (5 and 10 g ha^−1) gave 100% control of the ryegrass.

[3] = system: GAT-HRA transgenic cotton plants; assay: Greenhouse over-the-top herbicide spray of cotton; format: in vivo, Gossypium hirsutum
From the text: (§1) Cotton (Gossypium hirsutum) Coker 312 was transformed with a GAT polynucleotide (gat 4621) together with an Hra polynucleotide (SEQ ID NO:86) both operably linked to strong, constitutive plant viral promoters. The promoter linked to gat4621 contains a duplicated portion of the Strawberry Vein Banding Virus transcript promoter (Wang et al. Virus Genes 20: 11-17, 2000; Genbank X97304). The Hra gene was driven by a duplicated portion of the Mirabilis Mosaic Caulimovirus full-length transcript promoter (U.S. Pat. No. 6,420,547; Dey and Maiti, Transgenics 3:61-70, 1999). The transformation procedure used Agrobacterium tumefaciens containing an expression cassette with the genes to be transferred and cotyledon explant derived callus with some capacity to undergo embryogenesis. The callus was exposed to Agrobacterium for 48-72 hours. The callus was then exposed to selection for transformed cells on 50-200 μg/l chlorosulfuron and/or 50-450 μM glyphosate in solid medium. Glyphosate can also be used in a concentration range of about 5 to about 450 μM. Selection was applied until somatic embryos formed, and selection was again applied at the embryo germination step, and optionally during rooting of plantlets. Over 450 GAT-HRA transformation events were produced using selection with both chlorsulfuron and glyphosate.
(§2) Transformed cotton plants were rooted and then transferred to soil for further growth. Plants were then subjected to herbicide spray treatments in a greenhouse. […] Untransformed Coker 312 control plants were dead 2 weeks after glyphosate application. […] Plants transformed with both GAT and HRA were further subjected to an “over the top” application of the sulfonylurea herbicide rimsulfuron at a rate of 16 g active ingredient/hectare. […] In further experiments 32 g ai/ha rimsulfuron were applied to the cotton.

[4] = system: Untransformed Coker 312 control plants; assay: Greenhouse over-the-top herbicide spray of cotton; format: in vivo, Gossypium hirsutum
From the text: as §1, §2

[5] = system: Hairy Fleabane (Conyza bonariensis); assay: Glyphosate, metsulfuron-methyl and two additives on the control of hairy fleabane; format: in vivo; settings: glyphosate on its own; 10-15 leaf stage
Protocol: This example included the same treatments as used in Example 11, except the treatments were carried out on a glyphosate sensitive biotype of Kleinskraalhans (Conyza bonariensis).

[6] = system: parent elite stiff stalk inbred corn; assay: Postemergence test of herbicides on corn (fresh weight, visual injury); format: in vivo; settings: 3472 g ae/ha
[7] = system: non-transformed GS3 embryos; assay: Glyphosate kill curve; format: cell-based, maize; settings: about 40 days culture
Protocol: A glyphosate kill curve was established by testing non-transformed embryos response on media with different levels of glyphosate. GS3 embryos were isolated from an immature ear and placed onto media containing glyphosate at 0.0, 0.5, 1.0, and 2.0 mM. After about 40 days culture, the response of the embryos were observed and recorded. Similarly, infected GS3 embryos with the GAT construct were placed onto media containing glyphosate at 0.0, 0.5, 1.0, and 2.0 mM. After about 40 days culture, the response of the infected embryos were observed and recorded (FIG. 7).
Western or PCR analysis has confirmed that these resistant calli were transformed. Currently, GAT has performed consistently as an effective selectable marker with excellent transformation efficiency in both GS3 and introEF09B genotypes (FIG. 10 and Table 45).

GAT-HRA maize = assay: Evaluation of herbicide tolerance, spray at V2 stage; format: in vivo; settings: postemergence; tribenuron, chlorimuron, imazapyr 200 g ai/ha; metsulfuron-methyl 35 g ai/ha
Protocol: GAT-HRA maize plants were evaluated for tolerance to glyphosate and other herbicides. One protocol used in this evaluation was as follows. At the V2 stage (Ritchie and Hanway (1982), “How a corn plant develops” Spec. Rep. 48. (Coop. Ext. Ser., Iowa State Univ., Ames, Iowa)), plant heights were measured and herbicides were applied by spray application. Ten to fourteen days after the spray application, the transgenic plants were evaluated for injury symptoms and measured for plant height again in order to determine plant growth rates.
Plants were then evaluated at various times after treatment, such as 10 or 14 days after treatment. […] Leaf samples were taken from GAT-HRA plants and used in quantitative PCR analysis and other analyses to determine the number and arrangement of copies of the GAT and HRA polynucleotides that had been integrated into the plant genome.
Other protocols for evaluation included treatment with imidazolinone herbicides, such as the commercial herbicide Lightning® (a combination of imazapyr and imazethapyr), which was applied to GAT-HRA maize at the V2 leaf stage at four times the field label rate (250 g ai/ha). […] Another protocol for evaluation included treatment with imidazolinone herbicides as well as sulfonylurea and glyphosate herbicides. In these tests, GAT-HRA maize was treated with various combinations of Lightning® (imazapyr and imazethapyr), Basis® (rimsulfuron and thifensulfuron-methyl) and WeatherMAX® (glyphosate potassium salt). These herbicides were applied at the V2 stage as follows: Lightning® at twice the field label rate (1.8 oz ai/ac (133 ml ai/ha)), Basis® at twice the field label rate (0.5 oz ai/ac (36.9 ml ai/ha)) and WeatherMax® at four times the field label rate (43 oz ai/ac). Fourteen days after the treatment application, the plants were evaluated. […] “Field label rate” refers to the application rate specified on the product label. Where the application rate for a particular situation is a range of rates, as used herein, the term “field label rate” indicates the upper end of that range. […]

[8] = system: parent elite stiff stalk inbred corn; assay: Preemergence test of ALS herbicides on corn (fresh weight, visual injury); format: in vivo; settings: 200 g/ha, fresh shoots weighed 4 weeks after treatment, mean of four replications
control maize = assay: Evaluation of herbicide tolerance, spray at V2 stage; format: in vivo; settings: postemergence; tribenuron, chlorimuron, imazapyr 200 g ai/ha; metsulfuron-methyl 35 g ai/ha
[9] = system: non-transgenic control soybeans; assay: Postemergence herbicide spray of soybeans, visual injury; format: in vivo; settings: 35 g/ha
Protocol: (§3) Young regenerated transgenic plants were sprayed with 1× glyphosate (1× rate of glyphosate is 1120 g/ha of glyphosate isopropylamine) to cull segregants. Four replications were performed for each treatment. Plants were then treated with various herbicides, including glyphosate and ALS-inhibitor herbicides.
(§4) Six soybean seeds from each variety to be assayed were planted 1 cm deep in 5.5 (13.97 cm) inch square plastic container of a synthetic growth medium. […] When possible, containers were thinned to two uniform plants. Non-transgenic lines were thinned to two uniform plants per container.
(§5) Results are expressed below in Table 11 as the mean of four replications.

GAT-HRA soybeans = assay: as above; format: in vivo; settings: 35 g/ha
Protocol: as §3, §4, §5

O=C(O)CNCP(=O)(O)O [Glyphosate, N-phosphonomethylglycine]
% Visual Injury [1]: 10% | percentage printed with the plants that died ([2]; 0.5 L ha^−1 glyphosate (SCAT)): 12% | plants that eventually died ([2]; 0.5 L ha^−1 glyphosate (SCAT)): 15 of the 16 | GAT-HRA transgenic plants that showed no deleterious symptoms ([3]; 1.5 lb acid equivalent per acre, 4-6 leaf stage, 14 days after application): approximately 50% | state of control plants after application ([4]; 1.5 lb acid equivalent per acre, 4-6 leaf stage, 2 weeks after application): dead | percentage printed with the plants killed [5]: 12% | % Visual Injury [6]: 100% | Fresh Weight ([6]; 2 weeks after treatment): 1.0 g | embryos that showed callus initiation ([7]; 0.5 mM glyphosate in medium): about half | callus growth ([7]; 1.0 mM glyphosate in medium): very little callus growth | callus growth ([7]; 2.0 mM glyphosate in medium): very little callus growth

COC(=O)c1ccccc1S(=O)(=O)NC(=O)Nc1nc(C)nc(OC)n1 [Metsulfuron-methyl, methyl 2-[[[[(4-methoxy-6-methyl-1,3,5-triazin-2-yl)amino]carbonyl]amino]sulfonyl]benzoate]
effect on the ryegrass, on its own ([2]; 5-6 leaf stage): did nothing accept stunt the ryegrass plants slightly | damage from the treatment (GAT-HRA maize): no significant damage | Fresh Weight [8]: 0.0 g | damage from the treatment (control maize): severely damaged or killed

CCS(=O)(=O)c1cccnc1S(=O)(=O)NC(=O)Nc1nc(OC)cc(OC)n1 [Rimsulfuron, N-[[(4,6-dimethoxy-2-pyrimidinyl)amino]carbonyl]-3-(ethylsulfonyl)-2-pyridinesulfonamide]
transgenic plants that showed no deleterious symptoms from the dual herbicide application ([3]; rimsulfuron 16 g active ingredient/hectare after glyphosate 1.5 lb ae/acre, 14 days after rimsulfuron, 28 days after glyphosate): approximately 35% | damage of untransformed plants ([4]; 16 g active ingredient/hectare, in the absence of any glyphosate application): severe damage

COC(=O)c1ccccc1S(=O)(=O)NC(=O)N(C)c1nc(C)nc(OC)n1 [Tribenuron-methyl, methyl 2-[[[[N-(4-methoxy-6-methyl-1,3,5-triazin-2-yl)-N-methylamino]carbonyl]-amino]sulfonyl]benzoate]
effect on non-transgenic control soybeans [9]: killed | damage of GAT- and HRA-containing transgenic soybeans (GAT-HRA soybeans): no significant damage
